This is an account of results in US20090298834A1, “4-(AMINOMETHYL)CYCLOHEXANAMINE DERIVATIVES AS CALCIUM CHANNEL BLOCKERS” (priority 2008, published 2009).

Assay [1] addresses T1, human α1G T-type channels (Homo sapiens, UniProt O43497).
T1 construct: expressed in transfected cells; host or cells: HEK 293
As to the kind of experiment: T-type calcium channel block, whole cell patch clamp (α1G). It is filed as cell-based. As to conditions: HEK cells stably expressing human α1G; mainly non-inactivated protocol; values above 10 μM represented as 10 μM, values below 0.30 μM represented as 0.30 μM. How it is done: (§1) T-type calcium channel blocking activity was assayed in human embryonic kidney cells, HEK 293, stably transfected with the T-type calcium channel subunits. Briefly, cells were cultured in Dulbecco's modified eagle medium (DMEM) supplemented with 10% fetal bovine serum, 200 U/ml penicillin and 0.2 mg/ml streptomycin at 37° C. with 5% CO2. At 85% confluency cells were split with 0.25% trypsin/1 mM EDTA and plated at 10% confluency on glass coverslips. At 12 hours the medium was replaced and the cells stably transfected using a standard calcium phosphate protocol and the appropriate calcium channel cDNA's. Fresh DMEM was supplied and the cells transferred to 28° C./5% CO2. Cells were incubated for 1 to 2 days prior to whole cell recording.
(§2) Standard patch-clamp techniques were employed to identify blockers of T-type currents. Briefly, previously described HEK cell lines stably expressing human α1G, α1H and α1I T-type channels were used for all the recordings (passage #: 4-20, 37° C., 5% CO2). Whole cell patch clamp experiments were performed using an Axopatch 200B amplifier (Axon Instruments, Burlingame, Calif.) linked to a personal computer equipped with pCLAMP software. Data were analyzed using Clampfit (Axon Instruments) and SigmaPlot 4.0 (Jandel Scientific). To obtain T-type currents, plastic dishes containing semi-confluent cells were positioned on the stage of a ZEISS AXIOVERT S100 microscope after replacing the culture medium with external solution (see below). Whole-cell patches were obtained using pipettes (borosilicate glass with filament, O.D.: 1.5 mm, I.D.: 0.86 mm, 10 cm length), fabricated on a SUTTER P-97 puller with resistance values of ˜5 MΩ (see below for internal solution).
(§3) In the non-inactivating protocol, the holding potential is set at −110 mV and with a pre-pulse at −100 mV for 1 second prior to the test pulse at −40 mV for 50 ms. In the inactivation protocol, the pre-pulse is at approximately −85 mV for 1 second, which inactivates about 15% of the T-type channels.
(§4) Test compounds were dissolved in external solution, 0.1-0.01% DMSO. After 10 min rest, they were applied by gravity close to the cell using a WPI microfil tubing. The “non-inactivated” pre-pulse was used to examine the resting block of a compound. The “inactivated” protocol was employed to study voltage-dependent block. However, the initial data shown below were mainly obtained using the non-inactivated protocol only. . IC50 values are shown for various compounds of the invention in Table 4 for the drug of interest. Values are shown in μM and values above 10 μM are simply represented as 10 μM.

Assay [2] addresses T2, human α1H T-type channels (Homo sapiens, UniProt O95180).
T2 construct: expressed in transfected cells; host or cells: HEK 293
Briefly: T-type calcium channel block, whole cell patch clamp (α1H). It is filed as cell-based. As to conditions: HEK cells stably expressing human α1H; mainly non-inactivated protocol; values above 10 μM represented as 10 μM. How it is done:
as §1, §2, §3, §4
A general note: Patch clamp records ionic current or voltage across a cell membrane.

T2 sequence (O95180 whole entry): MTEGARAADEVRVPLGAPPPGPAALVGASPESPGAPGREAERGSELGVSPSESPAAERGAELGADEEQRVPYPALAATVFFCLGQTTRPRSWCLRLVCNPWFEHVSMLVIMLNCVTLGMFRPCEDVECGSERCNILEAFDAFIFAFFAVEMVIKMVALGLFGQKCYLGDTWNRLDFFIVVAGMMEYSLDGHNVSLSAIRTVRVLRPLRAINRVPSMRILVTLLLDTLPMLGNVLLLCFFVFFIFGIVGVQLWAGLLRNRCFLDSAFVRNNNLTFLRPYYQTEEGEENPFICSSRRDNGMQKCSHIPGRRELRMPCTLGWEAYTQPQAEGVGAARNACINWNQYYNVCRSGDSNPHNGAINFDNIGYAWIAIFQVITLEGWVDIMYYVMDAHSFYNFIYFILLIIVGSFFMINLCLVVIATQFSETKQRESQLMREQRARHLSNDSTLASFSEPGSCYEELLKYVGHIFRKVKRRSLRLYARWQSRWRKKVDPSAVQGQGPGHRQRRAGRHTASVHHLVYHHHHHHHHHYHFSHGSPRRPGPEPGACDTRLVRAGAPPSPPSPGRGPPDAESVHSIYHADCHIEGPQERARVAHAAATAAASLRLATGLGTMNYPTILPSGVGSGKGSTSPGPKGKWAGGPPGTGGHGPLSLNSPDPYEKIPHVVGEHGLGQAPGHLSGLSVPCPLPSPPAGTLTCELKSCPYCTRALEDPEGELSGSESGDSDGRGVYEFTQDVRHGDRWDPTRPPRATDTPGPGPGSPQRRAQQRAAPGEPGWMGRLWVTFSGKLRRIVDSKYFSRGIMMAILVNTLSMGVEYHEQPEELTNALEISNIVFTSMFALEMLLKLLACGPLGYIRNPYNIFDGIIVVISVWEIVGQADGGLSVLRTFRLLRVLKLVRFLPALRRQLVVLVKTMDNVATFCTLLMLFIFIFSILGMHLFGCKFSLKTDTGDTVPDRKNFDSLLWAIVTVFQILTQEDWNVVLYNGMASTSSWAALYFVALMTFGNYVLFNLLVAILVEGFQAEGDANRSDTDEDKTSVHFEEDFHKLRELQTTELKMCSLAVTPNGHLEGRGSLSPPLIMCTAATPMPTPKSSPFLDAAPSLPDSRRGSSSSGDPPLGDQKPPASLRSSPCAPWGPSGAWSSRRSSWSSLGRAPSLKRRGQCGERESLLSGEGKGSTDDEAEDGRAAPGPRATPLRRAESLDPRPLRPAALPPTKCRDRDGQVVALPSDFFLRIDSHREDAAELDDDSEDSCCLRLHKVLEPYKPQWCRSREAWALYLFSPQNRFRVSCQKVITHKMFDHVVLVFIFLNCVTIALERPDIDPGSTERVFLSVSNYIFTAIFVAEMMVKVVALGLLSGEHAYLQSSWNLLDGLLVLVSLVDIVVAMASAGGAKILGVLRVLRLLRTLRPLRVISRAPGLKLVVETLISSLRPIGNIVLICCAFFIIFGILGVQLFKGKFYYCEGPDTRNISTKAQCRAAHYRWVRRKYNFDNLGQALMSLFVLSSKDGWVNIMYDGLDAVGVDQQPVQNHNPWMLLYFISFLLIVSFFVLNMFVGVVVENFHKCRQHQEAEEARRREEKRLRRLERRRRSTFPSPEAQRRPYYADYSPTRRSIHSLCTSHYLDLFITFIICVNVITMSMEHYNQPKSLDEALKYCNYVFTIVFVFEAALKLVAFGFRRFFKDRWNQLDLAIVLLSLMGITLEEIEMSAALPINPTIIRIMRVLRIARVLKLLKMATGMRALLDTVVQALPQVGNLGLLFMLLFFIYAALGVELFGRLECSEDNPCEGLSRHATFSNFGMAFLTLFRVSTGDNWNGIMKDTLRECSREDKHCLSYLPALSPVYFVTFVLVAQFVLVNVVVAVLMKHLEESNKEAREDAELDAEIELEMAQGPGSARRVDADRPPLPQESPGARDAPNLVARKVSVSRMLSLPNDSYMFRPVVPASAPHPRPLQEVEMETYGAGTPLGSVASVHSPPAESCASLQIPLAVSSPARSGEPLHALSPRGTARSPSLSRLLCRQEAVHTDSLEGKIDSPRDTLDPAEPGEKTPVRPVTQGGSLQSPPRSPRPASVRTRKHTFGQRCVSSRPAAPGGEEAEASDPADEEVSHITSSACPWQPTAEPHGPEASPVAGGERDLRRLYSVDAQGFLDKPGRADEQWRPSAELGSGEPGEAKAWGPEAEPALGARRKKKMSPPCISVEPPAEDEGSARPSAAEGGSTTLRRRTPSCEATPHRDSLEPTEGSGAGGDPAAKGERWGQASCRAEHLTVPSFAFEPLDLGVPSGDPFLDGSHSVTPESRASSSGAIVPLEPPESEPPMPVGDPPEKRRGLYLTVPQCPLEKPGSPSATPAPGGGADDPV
T1 sequence (O43497 whole entry): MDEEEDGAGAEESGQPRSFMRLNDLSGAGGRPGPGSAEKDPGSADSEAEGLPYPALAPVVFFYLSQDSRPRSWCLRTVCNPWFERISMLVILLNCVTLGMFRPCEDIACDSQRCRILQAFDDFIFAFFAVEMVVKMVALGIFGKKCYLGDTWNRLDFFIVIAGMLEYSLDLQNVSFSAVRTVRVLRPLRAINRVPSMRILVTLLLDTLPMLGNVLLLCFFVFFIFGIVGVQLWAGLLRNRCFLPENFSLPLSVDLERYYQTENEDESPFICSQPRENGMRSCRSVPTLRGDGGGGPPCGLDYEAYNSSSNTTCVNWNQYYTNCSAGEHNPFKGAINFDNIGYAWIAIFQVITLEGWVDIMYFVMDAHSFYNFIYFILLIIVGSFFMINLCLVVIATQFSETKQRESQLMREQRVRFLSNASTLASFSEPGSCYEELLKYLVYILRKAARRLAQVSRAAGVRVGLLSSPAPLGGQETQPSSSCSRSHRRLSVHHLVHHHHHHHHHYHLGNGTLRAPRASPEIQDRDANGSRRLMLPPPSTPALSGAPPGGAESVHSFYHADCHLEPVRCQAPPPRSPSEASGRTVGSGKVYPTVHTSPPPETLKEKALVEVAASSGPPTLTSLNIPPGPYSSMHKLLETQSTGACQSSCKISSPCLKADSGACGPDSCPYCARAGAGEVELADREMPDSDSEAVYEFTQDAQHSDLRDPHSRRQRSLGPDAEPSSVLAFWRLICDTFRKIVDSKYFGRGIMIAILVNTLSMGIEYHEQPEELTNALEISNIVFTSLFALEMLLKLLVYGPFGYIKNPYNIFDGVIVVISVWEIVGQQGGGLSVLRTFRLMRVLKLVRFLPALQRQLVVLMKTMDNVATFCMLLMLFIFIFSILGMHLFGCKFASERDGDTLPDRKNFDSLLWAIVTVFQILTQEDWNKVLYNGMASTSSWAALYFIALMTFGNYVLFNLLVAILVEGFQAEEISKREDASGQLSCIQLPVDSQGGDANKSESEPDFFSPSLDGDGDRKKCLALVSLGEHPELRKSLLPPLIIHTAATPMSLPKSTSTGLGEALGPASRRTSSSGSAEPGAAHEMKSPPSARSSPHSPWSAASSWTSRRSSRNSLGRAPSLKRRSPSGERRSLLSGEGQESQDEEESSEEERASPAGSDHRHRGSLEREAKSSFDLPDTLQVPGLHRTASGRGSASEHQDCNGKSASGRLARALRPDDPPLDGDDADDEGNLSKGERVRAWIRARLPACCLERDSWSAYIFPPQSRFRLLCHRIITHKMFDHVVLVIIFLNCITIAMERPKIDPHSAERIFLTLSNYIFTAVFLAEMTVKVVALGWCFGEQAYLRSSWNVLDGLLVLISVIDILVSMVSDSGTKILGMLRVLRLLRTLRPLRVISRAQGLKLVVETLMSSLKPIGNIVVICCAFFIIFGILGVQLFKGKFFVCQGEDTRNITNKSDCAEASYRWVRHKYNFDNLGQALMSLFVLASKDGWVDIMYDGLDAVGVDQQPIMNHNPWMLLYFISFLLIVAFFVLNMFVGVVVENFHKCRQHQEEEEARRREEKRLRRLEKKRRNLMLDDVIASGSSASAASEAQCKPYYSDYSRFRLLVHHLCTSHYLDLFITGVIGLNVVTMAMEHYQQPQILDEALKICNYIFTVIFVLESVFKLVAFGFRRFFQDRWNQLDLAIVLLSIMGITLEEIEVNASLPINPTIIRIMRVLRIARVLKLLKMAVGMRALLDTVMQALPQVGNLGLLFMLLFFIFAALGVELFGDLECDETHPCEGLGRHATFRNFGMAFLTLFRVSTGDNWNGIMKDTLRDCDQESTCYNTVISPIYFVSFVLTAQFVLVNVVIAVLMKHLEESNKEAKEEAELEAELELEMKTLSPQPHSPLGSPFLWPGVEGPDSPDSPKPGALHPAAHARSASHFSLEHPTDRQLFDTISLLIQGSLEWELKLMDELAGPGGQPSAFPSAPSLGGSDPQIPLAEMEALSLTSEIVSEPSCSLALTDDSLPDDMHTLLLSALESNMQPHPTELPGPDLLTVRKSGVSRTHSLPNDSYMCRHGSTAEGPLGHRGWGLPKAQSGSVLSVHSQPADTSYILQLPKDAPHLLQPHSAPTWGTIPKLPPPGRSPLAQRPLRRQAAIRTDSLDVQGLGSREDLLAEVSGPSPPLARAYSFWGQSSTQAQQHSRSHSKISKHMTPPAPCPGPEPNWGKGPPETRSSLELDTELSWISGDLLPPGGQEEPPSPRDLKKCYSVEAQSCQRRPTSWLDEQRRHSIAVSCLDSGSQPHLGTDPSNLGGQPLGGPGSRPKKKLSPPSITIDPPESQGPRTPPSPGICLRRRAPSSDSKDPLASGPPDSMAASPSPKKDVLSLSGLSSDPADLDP

Consider `CC(C)CNC(=O)CN[C@H]1CC[C@H](CNC(=O)c2cc(C(F)(F)F)cc(C(F)(F)F)c2)CC1` [Compound 75, N-((trans-4-(2-(isobutylamino)-2-oxoethylamino)cyclohexyl)methyl)-3,5-bis(trifluoromethyl)benzamide], for which the results for the IC50 in assay [1] and in assay [2] were 810 nM and 430 nM, respectively.
The matching figures for `COc1cccc(O)c1CN[C@H]1CC[C@H](CNC(=O)c2cc(C(F)(F)F)cc(C(F)(F)F)c2)CC1` [Compound 33, N-((trans-4-(2-hydroxy-6-methoxybenzylamino)cyclohexyl)methyl)-3,5-bis(trifluoromethyl)benzamide]: not above 300 nM and 710 nM.
Turning to `Cc1ccc(-c2csc(NC(=O)C[C@H]3CC[C@@H](NC(=O)C4(c5ccccc5)CCNCC4)CC3)n2)cc1` [Compound 132, N-(cis-4-(2-oxo-2-(4-p-tolylthiazol-2-ylamino)ethyl)cyclohexyl)-4-phenylpiperidine-4-carboxamide], the IC50 (usually the concentration that inhibits the measured activity by half) is 1090 nM in assay [1] and not below 10000 nM in assay [2].
The matching figures for `CC1(C)CCCN1C(=O)CN[C@H]1CC[C@H](CNC(=O)c2cc(F)cc(Cl)c2)CC1` [Compound 204, 3-chloro-N-(((1r,4r)-4-(2-(2,2-dimethylpyrrolidin-1-yl)-2-oxoethylamino)cyclohexyl)methyl)-5-fluorobenzamide]: 1580 nM and 650 nM.
Consider `Cc1ccc(NC(=O)CN[C@H]2CC[C@@H](CNC(=O)c3cc(C(F)(F)F)cc(C(F)(F)F)c3)CC2)nc1` [Compound 73, N-((cis-4-(2-(5-methylpyridin-2-ylamino)-2-oxoethylamino)cyclohexyl)methyl)-3,5-bis(trifluoromethyl)benzamide], for which the IC50 in assay [1] worked out at 310 nM; in assay [2], 700 nM.
The matching figures for `CC(C)(C)NC(=O)CN[C@H]1CC[C@@H](CNC(=O)c2cc(C(F)(F)F)cc(C(F)(F)F)c2)CC1` [Compound 40, N-((cis-4-(2-(tert-butylamino)-2-oxoethylamino)cyclohexyl)methyl)-3,5-bis(trifluoromethyl)benzamide]: not above 300 nM and 190 nM.
The matching figures for `O=C(CN[C@H]1CC[C@H](CNC(=O)c2cc(C(F)(F)F)cc(C(F)(F)F)c2)CC1)NN1CCCCC1` [Compound 60, N-((trans-4-(2-oxo-2-(piperidin-1-ylamino)ethylamino)cyclohexyl)methyl)-3,5-bis(trifluoromethyl)benzamide]: 1300 nM and 1890 nM.
`CC(C)CNC(=O)CN[C@H]1CC[C@@H](CNC(=O)c2cc(C(F)(F)F)cc(C(F)(F)F)c2)CC1` [Compound 70, N-((cis-4-(2-(isobutylamino)-2-oxoethylamino)cyclohexyl)methyl)-3,5-bis(trifluoromethyl)benzamide]: the values for the IC50 in assay [1] and in assay [2] were 330 nM and 210 nM, respectively.
For `CC(C)(C)c1nc(CNC[C@H]2CC[C@H](NC(=O)c3cc(C(F)(F)F)cc(C(F)(F)F)c3)CC2)no1` [Compound 89, N-(trans-4-(((5-tert-butyl-1,2,4-oxadiazol-3-yl)methylamino)methyl)cyclohexyl)-3,5-bis(trifluoromethyl)benzamide], in that order: 1370 nM and 1950 nM.
As for `COc1cc(F)cc(C(=O)NC[C@H]2CC[C@H](NCC(=O)N3CCCC3(C)C)CC2)c1` [Compound 209, N-(((1r,4r)-4-(2-(2,2-dimethylpyrrolidin-1-yl)-2-oxoethylamino)cyclohexyl)methyl)-3-fluoro-5-methoxybenzamide], the IC50 in assay [1] worked out at 4050 nM; in assay [2] it was 1600 nM.
For `CC1CCCCN1C(=O)CN[C@H]1CC[C@H](CNC(=O)c2cc(C(F)(F)F)cc(C(F)(F)F)c2)CC1` (stereo partly drawn) [Compound 76, N-((trans-4-(2-(2-methylpiperidin-1-yl)-2-oxoethylamino)cyclohexyl)methyl)-3,5-bis(trifluoromethyl)benzamide], in that order: not above 300 nM and 615 nM.
With `O=C(CN[C@H]1CC[C@@H](CNC(=O)c2cc(C(F)(F)F)cc(C(F)(F)F)c2)CC1)NCC1CCCCC1` [Compound 48, N-((cis-4-(2-(cyclohexylmethylamino)-2-oxoethylamine)cyclohexyl)methyl)-3,5-bis(trifluoromethyl)benzamide], the IC50 in assay [1] was 350 nM; in assay [2], 250 nM.
The matching figures for `COCC(C)(C)N(C)C(=O)CN[C@H]1CC[C@@H](CNC(=O)c2cc(F)cc(Cl)c2)CC1` [Compound 212, 3-chloro-5-fluoro-N-(((1s,4s)-4-(2-((1-methoxy-2-methylpropan-2-yl)(methyl)amino)-2-oxoethylamino)cyclohexyl)methyl)benzamide]: 1580 nM and 420 nM.
As to `COc1cc(F)cc(C(=O)NC[C@H]2CC[C@@H](NCC(=O)N(C)C3(C)CCC3)CC2)c1` [Compound 215, 3-fluoro-5-methoxy-N-(((1s,4s)-4-(2-(methyl(1-methylcyclobutyl)amino)-2-oxoethylamino)cyclohexyl)methyl)benzamide], the IC50 in assay [1] is 1990 nM; in assay [2], 410 nM.
For `COc1cc(F)cc(C(=O)NC[C@H]2CC[C@H](NCC(=O)NC(C)(C)C)CC2)c1` [Compound 206, N-(((1r,4r)-4-(2-(tert-butylamino)-2-oxoethylamino)cyclohexyl)methyl)-3-fluoro-5-methoxybenzamide], in that order: 4420 nM and 1030 nM.
The matching figures for `Cc1cccc(CN[C@H]2CC[C@@H](CNC(=O)c3cc(F)cc(C(F)(F)F)c3)CC2)c1O` [Compound 18, 3-fluoro-N-((cis-4-(2-hydroxy-3-methylbenzylamino)cyclohexyl)methyl)-5-(trifluoromethyl)benzamide]: 460 nM and 1370 nM.
On to `COc1cccnc1CN[C@H]1CC[C@@H](CNC(=O)c2cc(C(F)(F)F)cc(C(F)(F)F)c2)CC1` [Compound 11, N-((cis-4-((3-methoxypyridin-2-yl)methylamino)cyclohexyl)methyl)-3,5-bis(trifluoromethyl)benzamide], for which the IC50 in assay [1] came to 1570 nM; in assay [2], 2330 nM.
For `CC(C)(C)C(O)CN[C@H]1CC[C@@H](CNC(=O)c2cc(C(F)(F)F)cc(C(F)(F)F)c2)CC1` (stereo partly drawn) [Compound 1], the IC50 is 390 nM in assay [1] and 580 nM in assay [2].
`COc1ccccc1CN[C@H]1CC[C@H](CNC(=O)c2cc(C(F)(F)F)cc(C(F)(F)F)c2)CC1` [Compound 29, N-((trans-4-(2-methoxybenzylamino)cyclohexyl)methyl)-3,5-bis(trifluoromethyl)benzamide]: the IC50 in assay [1] is not above 300 nM; in assay [2] it was 800 nM.
With `CC(C)(C)NC(=O)CN[C@H]1CC[C@H](CNC(=O)c2cccc(OC(F)(F)F)c2)CC1` [Compound 189, N-(((1r,4r)-4-(2-(tert-butylamino)-2-oxoethylamino)cyclohexyl)methyl)-3-(trifluoromethoxy)benzamide], the figures for the IC50 in assay [1] and in assay [2] were 3660 nM and 1660 nM, respectively.
The matching figures for `CC(C)(C)C(O)CN[C@H]1CC[C@H](CNC(=O)c2cc(C(F)(F)F)cc(C(F)(F)F)c2)CC1` (stereo partly drawn) [Compound 3, N-((trans-4-(2-hydroxy-3,3-dimethylbutylamino)cyclohexyl)methyl)-3,5-bis(trifluoromethyl)benzamide]: 470 nM and 1020 nM.
Consider `O=C(CNC[C@H]1CC[C@H](NC(=O)c2cc(C(F)(F)F)cc(C(F)(F)F)c2)CC1)Nc1ccccn1` [Compound 96, N-(trans-4-((2-oxo-2-(pyridin-2-ylamino)ethylamino)methyl)cyclohexyl)-3,5-bis(trifluoromethyl)benzamide], for which the IC50 came out at 540 nM in assay [1] and 1040 nM in assay [2].
Regarding `O=C(NC[C@H]1CC[C@H](NCc2c(O)cccc2F)CC1)c1cc(C(F)(F)F)cc(C(F)(F)F)c1` [Compound 32, N-((trans-4-(2-fluoro-6-hydroxybenzylamino)cyclohexyl)methyl)-3,5-bis(trifluoromethyl)benzamide], the IC50 turned out to be 330 nM in assay [1] and 3450 nM in assay [2].
With `O=C(NC[C@H]1CC[C@@H](NCc2cccnc2F)CC1)c1cc(C(F)(F)F)cc(C(F)(F)F)c1` [Compound 8, N-((cis-4-((2-fluoropyridin-3-yl)methylamino)cyclohexyl)methyl)-3,5-bis(trifluoromethyl)benzamide], the IC50 amounted to 3350 nM in assay [1] and 4840 nM in assay [2].
